Patent US9562085B2, “Antimicrobial peptide” (priority 2013, dated 2017)
Where two headings read alike, the source gives them in different places. Non-standard residues stand in square brackets, D forms with d. Residues, ends and D or L forms follow the SMILES beside them. *: point of attachment. Propionyl = CCC(=O)*

System: S. aureus JAR
Format: cell-based
Description: S. aureus JAR is described in Campoccia et al. (Int. J. Artif. Organs, 2008 September; 31(9):841-7).
For the in vitro killing assay with P10 variants, S. aureus JAR ([…] CFU/ml) were incubated for 2 hours at 37° C. with various concentrations of the peptides in PBS or in PBS/human plasma (1/1, v/v). […] The LC99.9 is the average value of two independent experiments.

Row | Compound | LC99.9 (μM) (50% plasma) (S. aureus JAR, 2 hours at 37° C. in PBS/human plasma (1/1, v/v), concentration killing 99.9% of the bacteria, average of two experiments) | LC99.9 (μM) (PBS) (S. aureus JAR, 2 hours at 37° C. in PBS, concentration killing 99.9% of the bacteria, average of two experiments) | LC99.9 (μM) (50% plasma) (JAR, 2 h) | LC99.9 (μM) (PBS) (JAR, 2 h)
1 | CCC(=O)N[C@@H](CC(C)C)C(=O)N[C@@H](C)C(=O)N[C@@H](CCCNC(=N)N)C(=O)N[C@@H](CCC(=O)O)C(=O)N[C@@H](Cc1ccc(O)cc1)C(=O)N[C@@H](CCCCN)C(=O)N[C@@H](CCCCN)C(=O)N[C@H](C(=O)N[C@H](C(=O)N[C@@H](CCC(=O)O)C(=O)N[C@@H](CCCCN)C(=O)N[C@@H](CC(C)C)C(=O)N[C@@H](CCCCN)C(=O)N[C@@H](CCCNC(=N)N)C(=O)N[C@@H](Cc1c[nH]c2ccccc12)C(=O)N[C@@H](CC(C)C)C(=O)N[C@@H](CCCNC(=N)N)C(=O)N[C@@H](CCC(N)=O)C(=O)N[C@H](C(=O)N[C@@H](CC(C)C)C(=O)N[C@@H](CCCNC(=N)N)C(=O)N[C@H](C(=O)N[C@@H](CC(C)C)C(=O)N[C@@H](CCCNC(=N)N)C(N)=O)[C@@H](C)O)C(C)C)C(C)C)[C@@H](C)CC [Peptide 1302-11, ULAREYKKIVEKLKRWLRQVLRTLRB] (Propionyl-LAREYKKIVEKLKRWLRQVLRTLR-NH2) | 102.4 µM | 1.6 µM |  | 
2 | CC[C@H](C)[C@H](NC(=O)[C@H](CCCCN)NC(=O)[C@H](CCCCN)NC(=O)[C@H](Cc1ccc(O)cc1)NC(=O)[C@H](CCC(=O)O)NC(=O)[C@@H](CCCNC(=N)N)NC(=O)[C@H](C)NC(=O)[C@H](CC(C)C)NC(C)=O)C(=O)N[C@H](C(=O)N[C@@H](CCC(=O)O)C(=O)N[C@@H](CCCCN)C(=O)N[C@@H](CC(C)C)C(=O)N[C@@H](CCCCN)C(=O)N[C@@H](CCCNC(=N)N)C(=O)N[C@@H](Cc1c[nH]c2ccccc12)C(=O)N[C@@H](CC(C)C)C(=O)N[C@@H](CCCNC(=N)N)C(=O)N[C@@H](CCC(N)=O)C(=O)N[C@H](C(=O)N[C@@H](CC(C)C)C(=O)N[C@@H](CCCNC(=N)N)C(=O)N[C@H](C(=O)N[C@@H](CC(C)C)C(=O)N[C@@H](CCCNC(=N)N)C(N)=O)[C@@H](C)O)C(C)C)C(C)C [Peptide 1301-3, JLArEYKKIVEKLKRWLRQVLRTLRB] (Ac-LA[dR]EYKKIVEKLKRWLRQVLRTLR-NH2) |  |  | 38.4 µM | 0.6 µM
3 | CC[C@H](C)[C@H](NC(=O)[C@H](CCCCN)NC(=O)[C@H](CCCCN)NC(=O)[C@H](Cc1ccc(O)cc1)NC(=O)[C@H](CCC(=O)O)NC(=O)[C@H](CCCNC(=N)N)NC(=O)[C@H](C)NC(=O)[C@H](CC(C)C)NC(C)=O)C(=O)N[C@H](C(=O)N[C@@H](CCC(=O)O)C(=O)N[C@@H](CCCCN)C(=O)N[C@@H](CC(C)C)C(=O)N[C@@H](CCCCN)C(=O)N[C@@H](CCCNC(=N)N)C(=O)N[C@@H](Cc1c[nH]c2ccccc12)C(=O)N[C@H](CC(C)C)C(=O)N[C@@H](CCCNC(=N)N)C(=O)N[C@@H](CCC(N)=O)C(=O)N[C@H](C(=O)N[C@@H](CC(C)C)C(=O)N[C@@H](CCCNC(=N)N)C(=O)N[C@H](C(=O)N[C@@H](CC(C)C)C(=O)N[C@@H](CCCNC(=N)N)C(N)=O)[C@@H](C)O)C(C)C)C(C)C [Peptide 1301-16, JLAREYKKIVEKLKRWlRQVLRTLRB] (Ac-LAREYKKIVEKLKRW[dL]RQVLRTLR-NH2) |  |  | 38.4 µM | 0.6 µM
4 | CC[C@H](C)[C@H](NC(=O)[C@H](CCCCN)NC(=O)[C@H](CCCCN)NC(=O)[C@H](Cc1ccc(O)cc1)NC(=O)[C@H](CCC(=O)O)NC(=O)[C@H](CCCNC(=N)N)NC(=O)[C@H](C)NC(=O)[C@H](CC(C)C)NC(C)=O)C(=O)N[C@H](C(=O)N[C@@H](CCC(=O)O)C(=O)N[C@H](CCCCN)C(=O)N[C@@H](CC(C)C)C(=O)N[C@@H](CCCCN)C(=O)N[C@@H](CCCNC(=N)N)C(=O)N[C@@H](Cc1c[nH]c2ccccc12)C(=O)N[C@@H](CC(C)C)C(=O)N[C@@H](CCCNC(=N)N)C(=O)N[C@@H](CCC(N)=O)C(=O)N[C@H](C(=O)N[C@@H](CC(C)C)C(=O)N[C@@H](CCCNC(=N)N)C(=O)N[C@H](C(=O)N[C@@H](CC(C)C)C(=O)N[C@@H](CCCNC(=N)N)C(N)=O)[C@@H](C)O)C(C)C)C(C)C [Peptide 1301-11, JLAREYKKIVEkLKRWLRQVLRTLRB] (Ac-LAREYKKIVE[dK]LKRWLRQVLRTLR-NH2) |  |  | 19.2 µM | 0.4 µM
5 | CC[C@H](C)[C@H](NC(=O)[C@H](CCCCN)NC(=O)[C@H](CCCCN)NC(=O)[C@H](Cc1ccc(O)cc1)NC(=O)[C@H](CCC(=O)O)NC(=O)[C@H](CCCNC(=N)N)NC(=O)[C@H](C)NC(=O)[C@H](CC(C)C)NC(C)=O)C(=O)N[C@H](C(=O)N[C@@H](CCC(=O)O)C(=O)N[C@@H](CCCCN)C(=O)N[C@@H](CC(C)C)C(=O)N[C@@H](CCCCN)C(=O)N[C@@H](CCCNC(=N)N)C(=O)N[C@@H](Cc1c[nH]c2ccccc12)C(=O)N[C@@H](CC(C)C)C(=O)N[C@@H](CCCNC(=N)N)C(=O)N[C@@H](CCC(N)=O)C(=O)N[C@H](C(=O)N[C@@H](CC(C)C)C(=O)N[C@@H](CCCNC(=N)N)C(=O)N[C@@H](C(=O)N[C@@H](CC(C)C)C(=O)N[C@@H](CCCNC(=N)N)C(N)=O)[C@H](C)O)C(C)C)C(C)C [Peptide 1301-22, JLAREYKKIVEKLKRWLRQVLRtLRB] (Ac-LAREYKKIVEKLKRWLRQVLR[dT]LR-NH2) |  |  | 38.4 µM | 0.6 µM
6 | CC[C@H](C)[C@H](NC(=O)[C@H](CCCCN)NC(=O)[C@H](CCCCN)NC(=O)[C@H](Cc1ccc(O)cc1)NC(=O)[C@H](CCC(=O)O)NC(=O)[C@H](CCCNC(=N)N)NC(=O)[C@H](C)NC(=O)[C@H](CC(C)C)NC(C)=O)C(=O)N[C@H](C(=O)N[C@H](CCC(=O)O)C(=O)N[C@@H](CCCCN)C(=O)N[C@@H](CC(C)C)C(=O)N[C@@H](CCCCN)C(=O)N[C@@H](CCCNC(=N)N)C(=O)N[C@@H](Cc1c[nH]c2ccccc12)C(=O)N[C@@H](CC(C)C)C(=O)N[C@@H](CCCNC(=N)N)C(=O)N[C@@H](CCC(N)=O)C(=O)N[C@H](C(=O)N[C@@H](CC(C)C)C(=O)N[C@@H](CCCNC(=N)N)C(=O)N[C@H](C(=O)N[C@@H](CC(C)C)C(=O)N[C@@H](CCCNC(=N)N)C(N)=O)[C@@H](C)O)C(C)C)C(C)C [Peptide 1301-10, JLAREYKKIVeKLKRWLRQVLRTLRB] (Ac-LAREYKKIV[dE]KLKRWLRQVLRTLR-NH2) |  |  | 38.4 µM | 0.6 µM
7 | CC[C@H](C)[C@H](NC(=O)[C@H](CCCCN)NC(=O)[C@H](CCCCN)NC(=O)[C@H](Cc1ccc(O)cc1)NC(=O)[C@H](CCC(=O)O)NC(=O)[C@H](CCCNC(=N)N)NC(=O)[C@H](C)NC(=O)[C@H](CC(C)C)NC(C)=O)C(=O)N[C@H](C(=O)N[C@@H](CCC(=O)O)C(=O)N[C@@H](CCCCN)C(=O)N[C@@H](CC(C)C)C(=O)N[C@H](CCCCN)C(=O)N[C@@H](CCCNC(=N)N)C(=O)N[C@@H](Cc1c[nH]c2ccccc12)C(=O)N[C@@H](CC(C)C)C(=O)N[C@@H](CCCNC(=N)N)C(=O)N[C@@H](CCC(N)=O)C(=O)N[C@H](C(=O)N[C@@H](CC(C)C)C(=O)N[C@@H](CCCNC(=N)N)C(=O)N[C@H](C(=O)N[C@@H](CC(C)C)C(=O)N[C@@H](CCCNC(=N)N)C(N)=O)[C@@H](C)O)C(C)C)C(C)C [Peptide 1301-13, JLAREYKKIVEKLkRWLRQVLRTLRB] (Ac-LAREYKKIVEKL[dK]RWLRQVLRTLR-NH2) |  |  | 38.4 µM | 0.6 µM
8 | Ac-LQREYKKIVEKLKRWLRQVLRTLR-NH2 [Peptide 1302-22, JLQREYKKIVEKLKRWLRQVLRTLRB] |  |  | 76.8 µM | 1.6 µM
9 | CC[C@H](C)[C@H](NC(=O)[C@H](CCCCN)NC(=O)[C@H](CCCCN)NC(=O)[C@H](Cc1ccc(O)cc1)NC(=O)[C@H](CCC(=O)O)NC(=O)[C@H](CCCNC(=N)N)NC(=O)[C@H](C)NC(=O)[C@H](CC(C)C)NC(C)=O)C(=O)N[C@H](C(=O)N[C@@H](CCC(=O)O)C(=O)N[C@@H](CCCCN)C(=O)N[C@@H](CC(C)C)C(=O)N[C@@H](CCCCN)C(=O)N[C@@H](CCCNC(=N)N)C(=O)N[C@@H](Cc1c[nH]c2ccccc12)C(=O)N[C@@H](CC(C)C)C(=O)N[C@@H](CCCNC(=N)N)C(=O)N[C@@H](CCC(N)=O)C(=O)N[C@H](C(=O)N[C@@H](CC(C)C)C(=O)N[C@@H](CCCNC(=N)N)C(=O)N[C@H](C(=O)N[C@H](CC(C)C)C(=O)N[C@@H](CCCNC(=N)N)C(N)=O)[C@@H](C)O)C(C)C)C(C)C [Peptide 1301-23, JLAREYKKIVEKLKRWLRQVLRTlRB] (Ac-LAREYKKIVEKLKRWLRQVLRT[dL]R-NH2) |  |  | 32.0 µM | 0.4 µM
10 | Ac-LVREYKKIVEKLKRWLRQVLRTLR-NH2 [Peptide 1302-21, JLVREYKKIVEKLKRWLRQVLRTLRB] |  |  | 76.8 µM | 1.2 µM
11 | CC[C@H](C)[C@H](NC(=O)[C@H](CCCCN)NC(=O)[C@H](CCCCN)NC(=O)[C@H](Cc1ccc(O)cc1)NC(=O)[C@H](CCC(=O)O)NC(=O)[C@H](CCCNC(=N)N)NC(=O)[C@H](C)NC(=O)[C@H](CC(C)C)NC(C)=O)C(=O)N[C@H](C(=O)N[C@@H](CCC(=O)O)C(=O)N[C@@H](CCCCN)C(=O)N[C@@H](CC(C)C)C(=O)N[C@@H](CCCCN)C(=O)N[C@@H](CCCNC(=N)N)C(=O)N[C@@H](Cc1c[nH]c2ccccc12)C(=O)N[C@@H](CC(C)C)C(=O)N[C@@H](CCCNC(=N)N)C(=O)N[C@@H](CCC(N)=O)C(=O)N[C@H](C(=O)N[C@H](CC(C)C)C(=O)N[C@@H](CCCNC(=N)N)C(=O)N[C@H](C(=O)N[C@@H](CC(C)C)C(=O)N[C@@H](CCCNC(=N)N)C(N)=O)[C@@H](C)O)C(C)C)C(C)C [Peptide 1301-20, JLAREYKKIVEKLKRWLRQVlRTLRB] (Ac-LAREYKKIVEKLKRWLRQV[dL]RTLR-NH2) |  |  | 38.4 µM | 0.6 µM
